# “And” between values parts separate entries of the source, which are not always exact repeats. Equal entries are not always repeated.
# Tests used:
# Huh-7 cells = assay: Whole genome bisulfite sequencing (WGBS), promoter 5mCpG demethylation; assay type: cell-based, human; conditions: Huh-7, HG 72 h, 25 μM 4 h
# Procedure: Each sample, 2 μg, was sent to EpigenDx, Inc. (Hopkinton, Mass.) for analysis of global methylation bisulfite sequencing. The same samples, 6 μg, were sent to Novogene Co., Ltd (Tianjin, China) for analysis of whole genome bisulfite sequencing (WGBS). Total RNA was isolated using the Promega SV total RNA isolation system (Madison, Wis.) with DNase treatment. Each sample, 2 μg, was used for the first-strand cDNA synthesis as recommended by the manufacturer (Invitrogen, Carlsbad, Calif.). Real-time RT-PCR was performed using SYBR Green as the indicator on ABI 7500 Fast Real-Time PCR System (Applied Biosystems, Foster City, Calif.). Amplifications of j-actin or GAPDH were used as internal controls. Relative messenger RNA (mRNA) expression was quantified with the comparative cycle threshold (Ct) method using the primer set shown in Table 1.1 and was expressed as 2^−ΔΔct.
# Each sample, 5.2 μg of genomic DNA spiked with 26 ng lambda DNA, was fragmented by sonication to 200-300 bp with Covaris S220, followed by end repair and adenylation. Cytosine-methylated barcodes were ligated to sonicated DNA per the manufacturer's instructions. These DNA fragments were treated twice with bisulfite using EZ DNA Methylation-Gold™ Kit™ (Zymo Research) before the resulting single-strand DNA fragments were PCR amplified using KAPA HiFi Hot Start Uracil and Ready Mix (2×). Library concentration was quantified by Qubit® 2.0 Flurometer (Life Technologies, CA, USA) and quantitative PCR, and the insert size was assayed on an Agilent Bioanalyzer 2100 system.
# The library preparations were sequenced on an Illumina Hiseq 2500/4000 or Novaseq™ platform and 125 bp/150 bp paired-end reads were generated. Image analysis and base calling were performed with Illumina CASAVA pipeline. Trimmomatic (Trimmomatic-0.36) software was used for quality control. Bismark software (version 0.16.3; Krueger F, 2011) was used to perform alignments of bisulfite-treated reads to a reference genome (−X 700-dovetail). DSS software (23) was used to identify differentially methylated regions (DMRs). KOBAS software was used to test the statistical enrichment of DMR related genes in the Kyoto Encyclopedia of Genes and Genomes (KEGG) pathways.
# Each sample (6 μg) was used for analysis of the whole genome bisulfite sequencing (WGBS).
# [1] = Metabolite profiling of plasma, urine, feces, intravenous dose; assay type: in vivo, rats; conditions: intravenous 10 mg/kg
# Procedure: Plasma pools were made from Group 1 rats at the 0.083, 0.25, 0.5, and 1-hour collection time points.
# Urine pools were prepared for Group 2 at 0 to 6 and 6 to 12 hours post-dose.
# Feces pools were prepared for Group 2 at 0 to 12, 12 to 24, and 24 to 48 hours post-dose.
smiles,measurement,setting,value
"C[C@H](CCCC(C)(C)O)[C@H]1CC[C@H]2[C@@H]3CC=C4C[C@@H](OS(=O)(=O)O)CC[C@]4(C)[C@H]3CC[C@]12C [25HC3S, 5-Cholesten-3β, 25-diol 3-sulfate]","DMR (Methylation %) 25HC3S-Vehicle, DRD5P2 promoter",Huh-7 cells; Chr1 1.43E+08,−34.73%
same,"DMR (Methylation %) 25HC3S-Vehicle, ITPKB promoter",Huh-7 cells; Chr1 2.27E+08,−25.12%
same,"DMR (Methylation %) 25HC3S-Vehicle, MAP4K4 promoter",Huh-7 cells; Chr2 1.02E+08,−13.63%
same,"DMR (Methylation %) 25HC3S-Vehicle, ROCK2 promoter",Huh-7 cells; Chr2 11344628-11344733,−23.14%
same,"DMR (Methylation %) 25HC3S-Vehicle, PPP1CB promoter",Huh-7 cells; Chr2 28751716-28751798,−10.93%
same,"DMR (Methylation %) 25HC3S-Vehicle, ADCY5 promoter",Huh-7 cells; Chr3 1.23E+08,−30.44%
same,"DMR (Methylation %) 25HC3S-Vehicle, HRH1 promoter",Huh-7 cells; Chr3 11154292-11154354,−25.48%
same,"DMR (Methylation %) 25HC3S-Vehicle, PLCD1 promoter",Huh-7 cells; Chr3 38029863-38030016,−24.31%
same,"DMR (Methylation %) 25HC3S-Vehicle, DUSP7 promoter",Huh-7 cells; Chr3 52056416-52056485,−40.47%
same,"DMR (Methylation %) 25HC3S-Vehicle, CACNA1D promoter",Huh-7 cells; Chr3 53494583-53494705,−20.46%
same,"DMR (Methylation %) 25HC3S-Vehicle, RAPGEF2 promoter",Huh-7 cells; Chr4 1.59E+08,−36.05%
same,"DMR (Methylation %) 25HC3S-Vehicle, PDE4D promoter",Huh-7 cells; Chr5 59893498-59893718,−27.84%
same,"DMR (Methylation %) 25HC3S-Vehicle, AFDN promoter",Huh-7 cells; Chr6 1.68E+08,−30.68%
same,"DMR (Methylation %) 25HC3S-Vehicle, AL671762.1 promoter",Huh-7 cells; Chr6 31828019-31828149,−27.17%
same,"DMR (Methylation %) 25HC3S-Vehicle, CREB5 promoter",Huh-7 cells; Chr7 28489448-28489601,−29.31%
same,"DMR (Methylation %) 25HC3S-Vehicle, GLI3 promoter",Huh-7 cells; Chr7 42228171-42228223,−19.62%
same,"DMR (Methylation %) 25HC3S-Vehicle, ADCY1 promoter",Huh-7 cells; Chr7 45574500-45574591,−14.76%
same,"DMR (Methylation %) 25HC3S-Vehicle, VAV2 promoter",Huh-7 cells; Chr9 1.34E+08,−33.11%
same,"DMR (Methylation %) 25HC3S-Vehicle, GNAQ promoter",Huh-7 cells; Chr9 78032198-78032440,−11.92%
same,"DMR (Methylation %) 25HC3S-Vehicle, PTCH1 promoter",Huh-7 cells; Chr9 95508446-95508561,−12.09%
same,"DMR (Methylation %) 25HC3S-Vehicle, GABBR2 promoter",Huh-7 cells; Chr9 98708549-98708610,−21.84%
same,"DMR (Methylation %) 25HC3S-Vehicle, ADRB1 promoter",Huh-7 cells; Chr10 1.14E+08,−33.1%
same,"DMR (Methylation %) 25HC3S-Vehicle, CACNB2 promoter",Huh-7 cells; Chr10 18140401-18140547,−21.91%
same,"DMR (Methylation %) 25HC3S-Vehicle, MAPK8 promoter",Huh-7 cells; Chr10 48306510-48306561,−29.24%
same,"DMR (Methylation %) 25HC3S-Vehicle, HRAS promoter",Huh-7 cells; Chr11 535071-535127,−18.85%
same,"DMR (Methylation %) 25HC3S-Vehicle, DUSP8 promoter",Huh-7 cells; Chr11 1572973-1573032,−30.51%
same,"DMR (Methylation %) 25HC3S-Vehicle, BAD promoter",Huh-7 cells; Chr11 64286088-64286179,−42.33%
same,"DMR (Methylation %) 25HC3S-Vehicle, RELA promoter",Huh-7 cells; Chr11 65661914-65662035,−35.1%
same,"DMR (Methylation %) 25HC3S-Vehicle, CACNA1C-AS1 promoter",Huh-7 cells; Chr12 2691335-2691438,−20.97%
same,"DMR (Methylation %) 25HC3S-Vehicle, NTF3 promoter",Huh-7 cells; Chr12 5432796-5432882,−33.48%
same,"DMR (Methylation %) 25HC3S-Vehicle, EDNRB promoter",Huh-7 cells; Chr13 77919496-77919743,−34.09%
same,"DMR (Methylation %) 25HC3S-Vehicle, ABCC4 promoter",Huh-7 cells; Chr13 95301634-95301736,−33.06%
same,"DMR (Methylation %) 25HC3S-Vehicle, ADCY4 promoter",Huh-7 cells; Chr14 24334570-24334719,−18.63%
same,"DMR (Methylation %) 25HC3S-Vehicle, MAX promoter",Huh-7 cells; Chr14 65102273-65102358,−31.75%
same,"DMR (Methylation %) 25HC3S-Vehicle, SLC8A3 promoter",Huh-7 cells; Chr14 70188747-70189089,−28.51%
same,"DMR (Methylation %) 25HC3S-Vehicle, TGFB3 promoter",Huh-7 cells; Chr14 75982395-75982557,−23.74%
same,"DMR (Methylation %) 25HC3S-Vehicle, CACNA1H promoter",Huh-7 cells; Chr16 1194928-1195015,−26.48%
same,"DMR (Methylation %) 25HC3S-Vehicle, GRIN2A promoter",Huh-7 cells; Chr16 10183302-10183414,−19.63%
same,"DMR (Methylation %) 25HC3S-Vehicle, GRIN2C promoter",Huh-7 cells; Chr17 74861739-74861853,−37.6% and −37.64%
same,"DMR (Methylation %) 25HC3S-Vehicle, SPHK1 promoter",Huh-7 cells; Chr17 76383180-76383291,−24.74%
same,"DMR (Methylation %) 25HC3S-Vehicle, GRIN3B promoter",Huh-7 cells; Chr19 1000331-1000405,−34.67%
same,"DMR (Methylation %) 25HC3S-Vehicle, GADD45B promoter",Huh-7 cells; Chr19 2474806-2474873,−28.6%
same,"DMR (Methylation %) 25HC3S-Vehicle, GNA11 promoter",Huh-7 cells; Chr19 3094383-3094442,−32.66%
same,"DMR (Methylation %) 25HC3S-Vehicle, AC005264.2 promoter",Huh-7 cells; Chr19 3156392-3156457,−15.76%
same,"DMR (Methylation %) 25HC3S-Vehicle, CACNA1A promoter",Huh-7 cells; Chr19 13226635-13226711,−39.91%
same,"DMR (Methylation %) 25HC3S-Vehicle, CTB-186G2.1 promoter",Huh-7 cells; Chr19 38596260-38596495,−34.3%
same,"DMR (Methylation %) 25HC3S-Vehicle, MAP4K1 promoter",Huh-7 cells; Chr19 38596260-38596495,−34.3%
same,"DMR (Methylation %) 25HC3S-Vehicle, ATP1A3 promoter",Huh-7 cells; Chr19 41999134-41999316,−15.75%
same,"DMR (Methylation %) 25HC3S-Vehicle, GIPR promoter",Huh-7 cells; Chr19 45668710-45668767,−10.04%
same,"DMR (Methylation %) 25HC3S-Vehicle, CACNG8 promoter",Huh-7 cells; Chr19 53961377-53961479,−31.18%
same,"DMR (Methylation %) 25HC3S-Vehicle, GNAS promoter",Huh-7 cells; Chr20 58888598-58888893,−25.68%
same,"DMR (Methylation %) 25HC3S-Vehicle, MAPK1 promoter",Huh-7 cells; Chr22 21867450-21867512,−7.66%
same,"DMR (Methylation %) 25HC3S-Vehicle, PDGFB promoter",Huh-7 cells; Chr22 39243967-39244084,−30.51%
same,"amount in feces, % of dose",[1]; 0 to 48 hours post-dose pools,2 % of dose
same,"share of the exposure (AUC) to 25HC3S related radioactivity, plasma",[1]; up to 1 hour post-dose,approximately 54%
